Series [1] can be described thus: Cytotoxicity against human HCT116 cells assessed as growth inhibition at 1 uM after 72 hrs by ATPlite assay relative to control. It is filed as functional. The conditions noted are these: HCT-116, 72 h, read-out: GI.
A short description of series [2]: Cytotoxicity against human HCT116 cells assessed as growth inhibition at 10 uM after 72 hrs by ATPlite assay relative to control. The note with it: HCT-116, 72 h, read-out: GI. It counts as functional. (In ATP-based viability assays light output follows the ATP content of the culture.)
The nature of series [3]: Cytotoxicity against human HCT116 cells assessed as growth inhibition at 20 uM after 72 hrs by ATPlite assay relative to control. It is filed as functional. The note with it: HCT-116, 72 h, read-out: GI.
In series [4] the test system is A549. In words: Cytotoxicity against human A549 cells assessed as growth inhibition after 72 hrs by ATPlite assay. It is filed as functional, cell-based. The conditions noted are these: A549, 72 h.
Series [5] in a line: Cytotoxicity against human HCT116 cells assessed as growth inhibition after 72 hrs by ATPlite assay. It is filed as functional, cell-based. The conditions noted are these: HCT-116, 72 h.
Series [6] deals with A-375. Description: Cytotoxicity against human A375 cells assessed as growth inhibition after 72 hrs by ATPlite assay. It is filed as functional, cell-based. The note with it: A-375, 72 h.
Series [7] is described as follows: Cytotoxicity against human HL60 cells assessed as growth inhibition after 72 hrs by ATPlite assay. It is filed as functional, cell-based. The conditions noted are these: HL-60, 72 h.
The subject of series [8] is Plasma. In words: Stability in mouse plasma at 5 uM after 120 mins by LC-MS analysis. The note with it: 2 h. It is filed as ADME, cell-free.
Series [9] deals with Plasma. In words: Stability in human plasma at 5 uM after 120 mins by LC-MS analysis. It counts as ADME, cell-free. The conditions noted are these: 2 h.
The test system of series [10] is Plasma. In words: Stability in rat plasma at 5 uM after 120 mins by LC-MS analysis. It is filed as ADME, cell-free. The conditions noted are these: 2 h.
Series [11] concerns A549. In words: Cytotoxicity against human A549 cells after 72 hrs by Coulter counter analysis. It is filed as functional, cell-based. The conditions noted are these: A549, 72 h.
Series [12] deals with MCF7. In words: Cytotoxicity against human MCF7 cells assessed as growth inhibition by CCK8 assay. It counts as functional, cell-based. Background: Formazan colour is commonly taken as a measure of viable cells.

SMILES strings stand for the structures.

`CC(=O)c1cccc(C2=CC3=CC(=O)O[C@@]34C[C@@H]2N2CCCC[C@@H]24)c1`: in series [1], the inhibition of growth at 1 µM is 3.6%. Moreover, the inhibition of growth at 10 µM in [2] came to 35.3%. For the same compound, the inhibition of growth at 20 µM in [3] stood at 65%.

For the compound `COC(=O)c1cccc(C2=CC3=CC(=O)O[C@@]34C[C@@H]2N2CCCC[C@@H]24)c1`, the inhibition of growth at 1 µM in series [1] amounted to 4%. Also, the inhibition of growth at 10 µM in [2] amounted to 60.2%. Moreover, the inhibition of growth at 20 µM in series [3] was 82.8%.

Take `Cc1cccc(C2=CC3=CC(=O)O[C@@]34C[C@@H]2N2CCCC[C@@H]24)c1`: in series [1], the inhibition of growth at 1 µM worked out at 75.5%. The IC50 in series [4] came out at 0.14 µM; in series [5], 0.28 µM; in series [6], 0.07 µM; in series [7], 0.13 µM. Also, in series [2], the inhibition of growth at 10 µM worked out at 93.3%. In addition, the inhibition of growth at 20 µM in series [3] amounted to 92.5%.

Regarding `Cc1ccc(C2=CC3=CC(=O)O[C@@]34C[C@@H]2N2CCCC[C@@H]24)cc1`, the inhibition of growth at 1 µM in series [1] stood at 3.4%. Also, in [2], the inhibition of growth at 10 µM was 73%. Besides, the inhibition of growth at 20 µM in [3] was 82.9%.

For the compound `O=C1C=C2C=C(c3cccc(C(F)(F)F)c3)[C@@H]3C[C@@]2(O1)[C@H]1CCCCN31`, in series [1], the inhibition of growth at 1 µM was found to be 21%. In addition, in series [2], the inhibition of growth at 10 µM was 81.9%. In addition, in series [3], the inhibition of growth at 20 µM is 83.1%.

As for `O=C1C=C2C=C(c3cccc(Cl)c3)[C@@H]3C[C@@]2(O1)[C@H]1CCCCN31`, the inhibition of growth at 1 µM in series [1] worked out at 76.6%. For the same compound, the IC50 in [4] was 0.11 µM; in [5], 0.23 µM; in series [6], 0.08 µM; in series [7], 0.14 µM. Also, in [2], the inhibition of growth at 10 µM was determined as 93.4%. Moreover, the inhibition of growth at 20 µM in series [3] was 93%.

As for `O=C1C=C2C=C(c3ccc4c(c3)OCO4)[C@@H]3C[C@@]2(O1)[C@H]1CCCCN31`, the inhibition of growth at 1 µM in [1] was -1.7%. Besides, the inhibition of growth at 10 µM in series [2] is 86.9%. Moreover, in series [3], the inhibition of growth at 20 µM came out at 90%.

As to `COc1cccc(C2=CC3=CC(=O)O[C@@]34C[C@@H]2N2CCCC[C@@H]24)c1`, the inhibition of growth at 1 µM in [1] was found to be 76.3%. Moreover, the IC50 in series [4] was found to be 0.12 µM; in series [5] it was 0.26 µM; in [6], 0.08 µM; in series [7], 0.14 µM. In addition, the Stability entry in [8], in series [9] and in series [10] was “Stable” throughout. Further, the inhibition of growth at 10 µM in [2] turned out to be 92.7%. Also, the inhibition of growth at 20 µM in series [3] came out at 92.8%.

As for `CC(=O)c1ccc(C2=CC3=CC(=O)O[C@@]34C[C@@H]2N2CCCC[C@@H]24)cc1`, the inhibition of growth at 1 µM in series [1] stood at 2.4%. In series [2], the inhibition of growth at 10 µM is 11.7%. Besides, the inhibition of growth at 20 µM in series [3] came out at 27.3%.

As for `O=C1C=C2C=C(c3ccc(Cl)c(Cl)c3)[C@@H]3C[C@@]2(O1)[C@H]1CCCCN31`, the inhibition of growth at 1 µM in series [1] came to 12.3%. The inhibition of growth at 10 µM in series [2] came out at 61%. Further, the inhibition of growth at 20 µM in [3] is 80.5%.

Take `COc1ccc(C2=CC3=CC(=O)O[C@@]34C[C@@H]2N2CCCC[C@@H]24)cc1`: the inhibition of growth at 1 µM in [1] stood at 11.7%. Moreover, the inhibition of growth at 10 µM in [2] was 9.4%. Further, in [3], the inhibition of growth at 20 µM turned out to be 24.8%.

`CN(C)c1ccc(C2=CC3=CC(=O)O[C@@]34C[C@@H]2N2CCCC[C@@H]24)cc1`: in series [1], the inhibition of growth at 1 µM was found to be 3.7%. Moreover, in series [2], the inhibition of growth at 10 µM is 21.5%. In addition, in [3], the inhibition of growth at 20 µM is 47.6%.

On to `CN(C)c1cccc(C2=CC3=CC(=O)O[C@@]34C[C@@H]2N2CCCC[C@@H]24)c1`, for which, in series [1], the inhibition of growth at 1 µM is 10.2%. Moreover, the inhibition of growth at 10 µM in series [2] came to 52.7%. In addition, in [3], the inhibition of growth at 20 µM amounted to 75.7%.

Regarding `O=C1C=C2C=C(c3ccccc3)[C@@H]3C[C@@]2(O1)[C@H]1CCCCN31`, in [1], the inhibition of growth at 1 µM came to 6.8%. Also, the inhibition of growth at 10 µM in [2] was 86.7%. For the same compound, the inhibition of growth at 20 µM in series [3] is 87.4%.

Regarding `O=C1C=C2C=C(c3ccc4c(c3)Cc3ccccc3-4)[C@@H]3C[C@@]2(O1)[C@H]1CCCCN31`, the inhibition of growth at 1 µM in [1] was determined as 20.9%. Besides, in series [2], the inhibition of growth at 10 µM was 53.6%. Also, in [3], the inhibition of growth at 20 µM worked out at 75.1%.

`O=C1C=C2C=C(c3ccc4ccccc4c3)[C@@H]3C[C@@]2(O1)[C@H]1CCCCN31`: in series [1], the inhibition of growth at 1 µM came to 10.8%. In addition, the inhibition of growth at 10 µM in [2] was found to be 30.9%. Moreover, the inhibition of growth at 20 µM in series [3] came to 51.1%.

Turning to `O=C1C=C2C=C(c3cccc(F)c3)[C@@H]3C[C@@]2(O1)[C@H]1CCCCN31`, the inhibition of growth at 1 µM in series [1] worked out at 32.1%. Also, the inhibition of growth at 10 µM in series [2] was determined as 80.3%. Moreover, the inhibition of growth at 20 µM in [3] is 84.1%.

Consider `COC(=O)c1ccc(C2=CC3=CC(=O)O[C@@]34C[C@@H]2N2CCCC[C@@H]24)cc1`, for which, in series [1], the inhibition of growth at 1 µM was 7.2%. Also, in [2], the inhibition of growth at 10 µM turned out to be 8.3%. The inhibition of growth at 20 µM in series [3] turned out to be 24.4%.

For the compound `O=C1C=C2C=C(c3ccc(F)cc3)[C@@H]3C[C@@]2(O1)[C@H]1CCCCN31`, in series [1], the inhibition of growth at 1 µM was -2.6%. Moreover, the inhibition of growth at 10 µM in [2] was 30.7%. Moreover, in series [3], the inhibition of growth at 20 µM came to 52.5%.

In the case of `COc1cc([C@@H]2c3cc4c(cc3[C@@H](O[C@@H]3O[C@@H]5CO[C@@H](C)O[C@H]5[C@H](O)[C@H]3O)[C@H]3COC(=O)[C@H]23)OCO4)cc(OC)c1O` [ETOPOSIDE], the IC50 in [4] was 0.59 µM; in series [5], greater than 10 µM; in [6], 0.24 µM; in series [7] it was 0.86 µM.

As for `O=C1C=C2C=C[C@@H]3C[C@@]2(O1)[C@H]1CCCCN31` [SECURININE], in series [1], the inhibition of growth at 1 µM was 7.6%. Moreover, the 50% inhibitory concentration (IC50) in series [4] was greater than 10 µM; in series [5] it was greater than 10 µM; in series [11] it was 25 µM; in series [12], 25 µM; in series [6], 6.1 µM; in [7], greater than 10 µM. The Stability result in series [8], in [9] and in series [10] was “Stable” each time. Besides, the inhibition of growth at 10 µM in series [2] is 50.6%. For the same compound, the inhibition of growth at 20 µM in series [3] came out at 90.7%.

Usually IC50 stands for the concentration that inhibits the measured activity by half.
